From US20230145793A1, “SUBSTITUTED PYRIMIDINE OR PYRIDINE AMINE DERIVATIVE, COMPOSITION THEREOF, AND MEDICAL USE THEREOF” (SHANGHAI HAIYAN PHARMACEUTICAL TECHNOLOGY CO., LTD., priority 2020, published 2023)

Key:
A2A receptor = biological target: T1, A2A receptor (Homo sapiens, UniProt P29274); experiment: Test 1: inhibitory activity to the A2A receptor, cAMP HTRF in CHO-K1/ADORA2A/Gα15 cells, NECA 50 nM; type: cell-based
T1 construct: host or cells: CHO-K1 (co-expressing Gα15)
Experimental: (§1) Test 1: Inhibitory Activities to the A2A Receptor and the A2B Receptor CHO-K1/ADORA2A/Gα15 (GenScript, M00246) and CHO-K1/ADORA2B/Gα15 (GenScript, M00329) cells were cultured in a Ham's F-12 (Gibco, 31765092) medium containing 10% FBS, Zeocin (200 ug/mL), and Hygromycin B (100 ug/mL), or containing 10% FBS, G418 (400 ug/mL), and Hygromycin B (100 ug/mL) under culture conditions specified in the corresponding instruction. Screening procedure was as follows: 1. The cell density was adjusted with a serum-free medium to 6×10^5 cells/mL. 2. 5 uL of cell solution, 2.5 μL of NECA (Sigma, 119140-10MG), and 2.5 μL of compound solution were placed into each well of a 384-well plate (Greiner Bio-One, 784075) in sequence, the final concentration of NECA was 50 nM (CHO-K1/ADORA2A) or 10 nM (CHO-K1/ADORA2B), and the compound solution was subjected to 3-fold dilution from the final concentration of 3 uM. 3. The cells were placed still and cultured in an incubator at 37° C. for 30 min. 4. 5 μL of cAMP-d2 and 5 μL of cAMP-ab (Cisbio, 62AM4PEB) were added in sequence. 5. The 384-well plate was placed in dark at the room temperature for 1 h. 6. The plate was read (Victor X5, PerkinElmer), data were analyzed by XLfit nonlinear regression, and IC50 values of the compounds were calculated.

A2B receptor = biological target: T2, A2B receptor (Homo sapiens, UniProt P29275); experiment: Test 1: inhibitory activity to the A2B receptor, cAMP HTRF in CHO-K1/ADORA2B/Gα15 cells, NECA 10 nM; type: cell-based
T2 construct: host or cells: CHO-K1 (co-expressing Gα15)
T2 sequence (P29275 1-332): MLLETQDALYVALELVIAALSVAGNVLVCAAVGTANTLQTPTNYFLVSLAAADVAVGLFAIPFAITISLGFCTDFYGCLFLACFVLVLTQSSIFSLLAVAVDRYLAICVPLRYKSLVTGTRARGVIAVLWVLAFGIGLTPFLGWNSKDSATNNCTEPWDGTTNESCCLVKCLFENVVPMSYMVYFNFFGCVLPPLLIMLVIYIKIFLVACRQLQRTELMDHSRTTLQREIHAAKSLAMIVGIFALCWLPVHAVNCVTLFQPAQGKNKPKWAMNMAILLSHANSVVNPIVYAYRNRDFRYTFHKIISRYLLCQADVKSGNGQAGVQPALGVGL
Experimental: as §1

T1 sequence (P29274 whole entry): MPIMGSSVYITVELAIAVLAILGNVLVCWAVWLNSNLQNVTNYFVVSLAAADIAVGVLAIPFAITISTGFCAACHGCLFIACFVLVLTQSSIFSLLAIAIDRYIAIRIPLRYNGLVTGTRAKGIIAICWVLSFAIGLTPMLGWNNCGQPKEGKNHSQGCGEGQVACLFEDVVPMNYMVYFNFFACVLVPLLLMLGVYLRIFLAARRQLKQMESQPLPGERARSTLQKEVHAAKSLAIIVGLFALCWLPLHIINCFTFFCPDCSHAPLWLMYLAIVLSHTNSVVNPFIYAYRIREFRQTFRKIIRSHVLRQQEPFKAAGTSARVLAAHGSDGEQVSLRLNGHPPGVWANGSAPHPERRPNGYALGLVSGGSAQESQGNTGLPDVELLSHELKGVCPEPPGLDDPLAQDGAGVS

Compound	IC50 (A2A receptor)	IC50 (A2B receptor)
Cc1c(C#N)cccc1-c1nc(N)nc(-c2cn(Cc3cccc(C(C)(C)O)n3)nn2)c1F [Compound L-2]	0.062 µM	0.029 µM
CC(C)(O)c1cccc(Cn2cc(-c3nc(-c4cccc(C#N)c4)nc4c3OCC(=O)N4)nn2)n1 [Compound L-4]	0.001 µM	0.006 µM
CC(C)(O)c1cccc(Cn2cc(-c3nc(-c4cccc(C#N)c4F)nc(N)c3F)nn2)n1 [Compound L-5]	0.004 µM	0.006 µM
Cc1c(C#N)cccc1-c1nc(N)c(Cl)c(-c2cn(Cc3cccn(CC(C)(C)O)c3=O)nn2)n1 [Compound L-7]	< 0.001 µM	0.007 µM
Cc1c(C#N)cccc1-c1nc(N)c(Cl)c(-c2cn(Cc3cccn(C(C)C)c3=O)nn2)n1 [Compound L-8]	< 0.001 µM	0.003 µM
CCc1nccc(Cn2cc(-c3nc(-c4cccc(C#N)c4C)nc(N)c3Cl)nn2)n1 [Compound L-11]	0.001 µM	0.014 µM
Cc1c(C#N)cccc1-c1nc(N)c(Cl)c(-c2cn(Cc3ccn(C4CC4)n3)nn2)n1 [Compound L-12]	< 0.001 µM	0.004 µM
Cc1c(C#N)cccc1-c1nc(N)c(Cl)c(-c2cn(Cc3cccn(C)c3=O)nn2)n1 [Compound L-13]	0.001 µM	0.013 µM
Cc1c(F)cccc1-c1nc(N)c(F)c(-c2cn(Cc3cccc(C(C)(C)O)n3)nn2)n1 [Compound L-14]	0.017 µM	0.014 µM
Cc1c(C#N)cccc1-c1nc(N)c(F)c(-c2cn(Cc3cccn(C4CC4)c3=O)nn2)n1 [Compound L-17]	0.001 µM	0.007 µM
Cc1c(C#N)cccc1-c1nc(N)c(F)c(-c2cn(Cc3ccn(C4CC(F)(F)C4)n3)nn2)n1 [Compound L-19]	0.003 µM	0.006 µM
Cc1c(C#N)cccc1-c1nc(N)c(Cl)c(-c2cn(Cc3cc[nH]n3)nn2)n1 [Compound L-20]	0.004 µM	0.012 µM
Cc1c(C#N)cccc1-c1nc(N)c(F)c(-c2cn(Cc3cc(F)n(C)n3)nn2)n1 [Compound L-21]	0.007 µM	0.021 µM
Cc1c(C#N)cccc1-c1nc(N)c(Cl)c(-c2cn(Cc3cc(C(C)(C)O)[nH]n3)nn2)n1 [Compound L-22]	0.01 µM	0.001 µM
Cc1c(C#N)cccc1-c1nc(N)c(F)c(-c2cn(Cc3cc[nH]n3)nn2)n1 [Compound L-27]	0.007 µM	0.002 µM
Cc1c(C#N)cccc1-c1nc(N)c(F)c(-c2cn(Cc3ccn(CC(N)=O)n3)nn2)n1 [Compound L-29]	0.009 µM	0.008 µM
CCn1ccc(Cn2cc(-c3nc(-c4cccc(C#N)c4C)nc(N)c3F)nn2)n1 [Compound L-30]	< 0.001 µM	0.001 µM
Cc1c(C#N)cccc1-c1nc(N)c(Cl)c(-c2cnn(Cc3ccn(C)n3)c2)n1 [Compound L-33]	0.002 µM	0.005 µM
Cc1c(C#N)cccc1-c1nc(N)c(Cl)c(-c2cn(Cc3ccn(C(F)F)n3)nn2)n1 [Compound L-34]	0.002 µM	0.008 µM
Cc1c(C#N)cccc1-c1nc(N)c(F)c(-c2cn(Cc3ccn(CC(C)C)n3)nn2)n1 [Compound L-36]	0.001 µM	0.01 µM
Cc1c(C#N)cccc1-c1nc(N)c(F)c(-c2cn(Cc3ccn(CC(F)(F)F)n3)nn2)n1 [Compound L-37]	0.002 µM	0.007 µM
Cc1c(C#N)cccc1-c1nc(N)c(F)c(-c2cn(Cc3ccn(CC4CC4)n3)nn2)n1 [Compound L-39]	0.002 µM	0.007 µM
Cc1c(C#N)cccc1-c1nc(N)c(F)c(-c2cn(Cc3cnn(C)n3)nn2)n1 [Compound L-47]	0.011 µM	0.024 µM
Cc1c(C#N)cccc1-c1nc(N)c(F)c(-c2cn(Cc3ccn(C(C)(C)CO)n3)nn2)n1 [Compound L-49]	0.001 µM	0.002 µM
Cc1c(C#N)cccc1-c1nc(N)c(F)c(-c2cn(Cc3ccn(C(C)(C)C)n3)nn2)n1 [Compound L-51]	0.03 µM	0.006 µM
